The results in this text go back to ChEMBL document CHEMBL2390843, “Design, synthesis and antitumour activity of bisquinoline derivatives connected by 4-oxy-3-fluoroaniline moiety” (Eur J Med Chem, 2013).

Test [1] is described as follows: Cytotoxicity against human U87MG cells after 72 hrs by MTT assay. The note with it: U-87 MG. It is filed as functional, cell-based, U-87MG ATCC.
The subject of test [2] is HT-29. Description: Cytotoxicity against human HT-29 cells after 72 hrs by MTT assay. As to conditions: HT-29, 72 h. (Tetrazolium dyes change colour on reduction, which living cells bring about.)
The nature of test [3]: Cytotoxicity against human H460 cells after 72 hrs by MTT assay. As to conditions: NCI-H460, 72 h.
The test system of test [4] is MKN-45. The experiment in a line: Cytotoxicity against human MKN45 cells after 72 hrs by MTT assay. The note with it: MKN-45, 72 h.
Test [5] concerns SMMC-7721. The experiment in a line: Cytotoxicity against human SMMC7721 cells after 72 hrs by MTT assay. As to conditions: SMMC-7721, 72 h.

As to `COc1cc2c(Oc3ccc(NC(=O)c4cc(-c5ccc(F)cc5)nc5ccc(F)cc45)cc3F)ccnc2cc1OCCCN1CCOCC1`, the IC50 (in general, the concentration at which inhibition is half-maximal) in test [1] worked out at 2150 nM; in test [2] it was 250 nM; in test [3], 27 nM; in test [4], 51 nM.

As for `COc1ccc(-c2cc(C(=O)Nc3ccc(Oc4ccnc5cc(OCCCN6CCCC6)c(OC)cc45)c(F)c3)c3cc(F)ccc3n2)cc1`, the half-maximal inhibitory concentration (IC50) worked out at 930 nM in test [1], 610 nM in test [2], 250 nM in test [3] and 170 nM in test [4].

Consider `COc1cccc(-c2cc(C(=O)Nc3ccc(Oc4ccnc5cc(OCCCN6CCCC6)c(OC)cc45)c(F)c3)c3ccccc3n2)c1`, for which the 50% inhibitory concentration (IC50) was 1020 nM in test [2], 290 nM in test [3], 790 nM in test [5] and 430 nM in test [4].

Consider `COc1cccc(-c2cc(C(=O)Nc3ccc(Oc4ccnc5cc(OCCCN6CCOCC6)c(OC)cc45)c(F)c3)c3ccccc3n2)c1`, for which the IC50 came out at 3050 nM in test [2], 560 nM in test [3], 1130 nM in test [5] and 110 nM in test [4].

As to `COc1ccc(-c2cc(C(=O)Nc3ccc(Oc4ccnc5cc(OCCCN6CCCCC6)c(OC)cc45)c(F)c3)c3ccccc3n2)cc1`, the IC50 in test [1] is 1360 nM; in test [2] it was 690 nM; in test [3], 290 nM; in test [5], 210 nM; in test [4], 210 nM.

With `COc1cc2c(Oc3ccc(NC(=O)c4cc(-c5ccc(C)cc5)nc5ccccc45)cc3F)ccnc2cc1OCCCN1CCOCC1`, the 50% inhibitory concentration (IC50) amounted to 3560 nM in test [2], 1100 nM in test [3], 1520 nM in test [5] and 830 nM in test [4].

Consider `COc1ccc(-c2cc(C(=O)Nc3ccc(Oc4ccnc5cc(OCCCN6CCOCC6)c(OC)cc45)c(F)c3)c3ccccc3n2)cc1`, for which the 50% inhibitory concentration (IC50) in test [2] stood at 3190 nM; in test [3] it was 750 nM; in test [5], 1180 nM; in test [4], 160 nM.

Consider `COc1cc2c(Oc3ccc(NC(=O)c4cc(-c5ccc(C(F)(F)F)cc5)nc5ccccc45)cc3F)ccnc2cc1OCCCN1CCOCC1`, for which the IC50 in test [1] is 1010 nM; in test [2] it was 230 nM; in test [3] it was 68 nM; in test [5] it was 100 nM; in test [4], 12 nM.

Turning to `COc1cccc(-c2cc(C(=O)Nc3ccc(Oc4ccnc5cc(OCCCN6CCC(C)CC6)c(OC)cc45)c(F)c3)c3cc(F)ccc3n2)c1`, the IC50 in test [1] stood at 840 nM; in test [2], 1210 nM; in test [3], 840 nM; in test [4], 730 nM.

On to `COc1cc2c(Oc3ccc(NC(=O)c4cc(-c5ccc(C)cc5)nc5ccccc45)cc3F)ccnc2cc1OCCCN1CCCC1`, for which the IC50 in test [2] turned out to be 850 nM; in test [3], 240 nM; in test [5], 520 nM; in test [4], 300 nM.

In the case of `COc1cc2c(Oc3ccc(NC(=O)c4cc(-c5ccc(C)cc5)nc5ccc(F)cc45)cc3F)ccnc2cc1OCCCN1CCC(C)CC1`, the half-maximal inhibitory concentration (IC50) in test [1] stood at 2000 nM; in test [2], 420 nM; in test [3], 480 nM; in test [4], 260 nM.

Consider `COc1cc2c(Oc3ccc(NC(=O)c4cc(-c5ccccc5)nc5ccccc45)cc3F)ccnc2cc1OCCCN1CCCCC1`, for which the half-maximal inhibitory concentration (IC50) in test [1] was found to be 1490 nM; in test [2], 530 nM; in test [3] it was 110 nM; in test [5] it was 290 nM; in test [4], 15 nM.

For the molecule `COc1cccc(-c2cc(C(=O)Nc3ccc(Oc4ccnc5cc(OCCCN6CCCCC6)c(OC)cc45)c(F)c3)c3cc(F)ccc3n2)c1`, the concentration for half-maximal inhibition (IC50) in test [1] was 1610 nM; in test [2] it was 2500 nM; in test [3] it was 1000 nM; in test [4], 690 nM.

For `COc1cc2c(Oc3ccc(NC(=O)c4cc(-c5cccc(Cl)c5)nc5ccc(F)cc45)cc3F)ccnc2cc1OCCCN1CCC(C)CC1`, the IC50 in test [1] worked out at 110 nM; in test [2] it was 92 nM; in test [3] it was 60 nM; in test [4], 10 nM.

In the case of `COc1cc2c(Oc3ccc(NC(=O)c4cc(-c5cccc(Cl)c5)nc5ccccc45)cc3F)ccnc2cc1OCCCN1CCC(C)CC1`, the IC50 in test [1] was 580 nM; in test [2], 100 nM; in test [3] it was 65 nM; in test [5], 80 nM; in test [4], 30 nM.

Regarding `COc1cc2c(Oc3ccc(NC(=O)c4cc(-c5ccc(F)cc5)nc5ccccc45)cc3F)ccnc2cc1OCCCN1CCCCC1`, the half-inhibitory concentration (IC50) in test [1] was determined as 980 nM; in test [2], 130 nM; in test [3] it was 21 nM; in test [5] it was 74 nM; in test [4], 28 nM.

Consider `COc1cccc(-c2cc(C(=O)Nc3ccc(Oc4ccnc5cc(OCCCN6CCCCC6)c(OC)cc45)c(F)c3)c3ccccc3n2)c1`, for which the 50% inhibitory concentration (IC50) in test [2] amounted to 1740 nM; in test [3] it was 210 nM; in test [5], 380 nM; in test [4] it was 360 nM.

Take `COc1cc2c(Oc3ccc(NC(=O)c4cc(-c5cccc(Cl)c5)nc5ccccc45)cc3F)ccnc2cc1OCCCN1CCCCC1`: the IC50 came to 150 nM in test [1]; 62 nM in test [2]; 11 nM in test [3]; 30 nM in test [5]; 11 nM in test [4].

Regarding `COc1ccc(-c2cc(C(=O)Nc3ccc(Oc4ccnc5cc(OCCCN6CCCCC6)c(OC)cc45)c(F)c3)c3cc(F)ccc3n2)cc1`, the IC50 came out at 1100 nM in test [1], 600 nM in test [2], 240 nM in test [3] and 260 nM in test [4].

`COc1cc2c(Oc3ccc(NC(=O)c4cc(-c5ccc(C)cc5)nc5ccc(F)cc45)cc3F)ccnc2cc1OCCCN1CCOCC1`: the IC50 in test [1] was determined as 820 nM; in test [2], 390 nM; in test [3], 440 nM; in test [4], 320 nM.

Regarding `COc1cc2c(Oc3ccc(NC(=O)c4cc(-c5ccc(C)cc5)nc5ccc(F)cc45)cc3F)ccnc2cc1OCCCN1CCCCC1`, the IC50 was found to be 1050 nM in test [1], 500 nM in test [2], 260 nM in test [3] and 170 nM in test [4].

Take `COc1ccc(-c2cc(C(=O)Nc3ccc(Oc4ccnc5cc(OCCCN6CCC(C)CC6)c(OC)cc45)c(F)c3)c3ccccc3n2)cc1`: the IC50 in test [2] was 1110 nM; in test [3], 110 nM; in test [5], 450 nM; in test [4], 320 nM.

Take `COc1cc2c(Oc3ccc(NC(=O)c4cc(-c5cccc(Cl)c5)nc5ccc(F)cc45)cc3F)ccnc2cc1OCCCN1CCCC1`: the 50% inhibitory concentration (IC50) in test [1] turned out to be 990 nM; in test [2], 670 nM; in test [3] it was 72 nM; in test [4], 67 nM.

In the case of `COc1cc2c(Oc3ccc(NC(=O)c4cc(-c5ccc(C)cc5)nc5ccccc45)cc3F)ccnc2cc1OCCCN1CCC(C)CC1`, the half-inhibitory concentration (IC50) was 3150 nM in test [2], 880 nM in test [3], 1260 nM in test [5] and 770 nM in test [4].

In the case of `COc1cc2c(Oc3ccc(NC(=O)c4cc(-c5cccc(Cl)c5)nc5ccccc45)cc3F)ccnc2cc1OCCCN1CCOCC1`, the IC50 is 1470 nM in test [1]; 1080 nM in test [2]; 80 nM in test [3]; 320 nM in test [5]; 35 nM in test [4].

As for `COc1cc2c(Oc3ccc(NC(=O)c4cc(-c5ccc(Cl)cc5Cl)nc5ccc(F)cc45)cc3F)ccnc2cc1OCCCN1CCCCC1`, the half-inhibitory concentration (IC50) amounted to 1040 nM in test [1], 530 nM in test [2], 310 nM in test [3] and 250 nM in test [4].

`COc1cc2c(Oc3ccc(NC(=O)c4cc(-c5ccccc5)nc5ccc(F)cc45)cc3F)ccnc2cc1OCCCN1CCCC1`: the half-inhibitory concentration (IC50) was determined as 960 nM in test [1], 160 nM in test [2], 90 nM in test [3] and 110 nM in test [4].

For `COc1cc2c(Oc3ccc(NC(=O)c4cc(-c5cccc(Cl)c5)nc5ccc(F)cc45)cc3F)ccnc2cc1OCCCN1CCOCC1`, the IC50 in test [1] is 1060 nM; in test [2], 1200 nM; in test [3], 68 nM; in test [4], 60 nM.

As for `COc1cc2c(Oc3ccc(NC(=O)c4cc(-c5ccccc5)nc5ccc(F)cc45)cc3F)ccnc2cc1OCCCN1CCCCC1`, the IC50 in test [1] came out at 690 nM; in test [2], 120 nM; in test [3], 32 nM; in test [4], 30 nM.

For `COc1cc2c(Oc3ccc(NC(=O)c4cc(-c5ccccc5)nc5ccccc45)cc3F)ccnc2cc1OCCCN1CCOCC1`, the IC50 in test [1] was found to be 1140 nM; in test [2] it was 1520 nM; in test [3], 190 nM; in test [5], 330 nM; in test [4] it was 91 nM.

Regarding `COc1cc2c(Oc3ccc(NC(=O)c4cc(-c5ccccc5)nc5ccccc45)cc3F)ccnc2cc1OCCCN1CCC(C)CC1`, the concentration for half-maximal inhibition (IC50) in test [1] was determined as 920 nM; in test [2], 120 nM; in test [3] it was 68 nM; in test [5] it was 160 nM; in test [4] it was 19 nM.

For the molecule `COc1cc2c(Oc3ccc(NC(=O)c4cc(-c5ccc(Cl)c(Cl)c5)nc5ccccc45)cc3F)ccnc2cc1OCCCN1CCCC1`, the IC50 in test [2] came to 1960 nM; in test [3] it was 400 nM; in test [5] it was 340 nM; in test [4], 170 nM.

With `COc1cc2c(Oc3ccc(NC(=O)c4cc(-c5ccc(Cl)c(Cl)c5)nc5ccccc45)cc3F)ccnc2cc1OCCCN1CCCCC1`, the half-inhibitory concentration (IC50) was found to be 1210 nM in test [2], 820 nM in test [3], 770 nM in test [5] and 730 nM in test [4].
